Each molecule was assayed on Mycobacterium tuberculosis (assay: MMV: Screen against Mtb, single point, non replicating, at 25uM).
Assay type: functional

Row | Structure (SMILES) | inhibition at 25 µM
1 | O=C(Nc1ccc(-c2nc3cc4ccccc4cc3[nH]2)cc1)c1cccc(Br)c1 | 37%
2 | CCCCNc1nc(NC(C)(C)C)nc(NC(C)(C)C)n1 | 42.1%
3 | CCCCC(O)(c1ccc(Cl)cc1)C(CN1CCOCC1)c1ccc(Cl)cc1 (stereo not given) | 15.2%
4 | CN(C)CCCNc1c2ccccc2nc2ccccc12 | 17.8%
5 | O=C(NCc1ccco1)C1CCN(S(=O)(=O)c2ccc(Br)cc2)CC1 | 10.5%
6 | CCCCCCC(O)(c1ccc(F)cc1)C(CN1CCOCC1)c1ccccc1 (stereo not given) | 19.8%
7 | COc1ccc(CCN2CCC(CN(C)Cc3cnn(-c4ccccc4)c3)CC2)cc1 | 15%
8 | Cc1ccc2nc(C)cc(Nc3cccc(C(F)(F)F)c3)c2c1 | 10.4%
9 | CCOC(=O)C1(Cc2ccccc2)CCN(Cc2cccc(OC)c2O)CC1 | 8.77%
10 | Cc1cc(Nc2ccc(C)c(Cl)c2)n2nc(C(F)(F)F)nc2n1 | 4.53%
11 | O=[N+]([O-])c1ccc(C=NNc2nc3ccccc3[nH]2)cc1 | 16.2%
12 | COc1ccc(C(=O)Nc2ccc(Cl)cc2C(=O)Nc2ccncc2)cc1 | 30.9%
13 | CC(C)CNC(=O)c1c(N)n(CCc2ccccc2F)c2nc3ccccc3nc12 | 2.78%
14 | COc1ccc2c(c1)OC(O)(C(F)(F)C(F)(F)F)CC2=O (stereo not given) | 20.1%
15 | COc1ccc(CNC(=O)c2cc3c(=O)n4ccccc4nc3n(CCc3ccccc3)c2=N)cc1 | 6.82%
16 | Cc1cc(C)cc(Nc2cc(C)nc3nc(C(F)(F)F)nn23)c1 | 4.53%
17 | COc1cccc(Nc2nc(N)c3ccccc3n2)c1 | 11.4%
18 | CC1CCCCN1CCCNC(=O)c1ccc2c(c1)sc1nc(-c3ccc(F)cc3)cn12 (stereo not given) | 9.76%
19 | CCC(=O)Nc1nnc(Cc2ccc(OC)c(OC)c2)s1 | 1.56%
20 | CCOc1ccc(N2C(N)=NC(N)=NC2(C)C)cc1 | 8.77%

Row | Structure (SMILES) | inhibition at 25 µM
21 | COc1ccc(C(=O)NC(c2ccccc2Cl)c2cc(Cl)c3cccnc3c2O)cc1 (stereo not given) | 5.04%
22 | CCCc1cc(O)c2c3c(c(=O)oc2c1)CN(C)CC3 | 14.1%
23 | COCCNC(=O)c1ccc(OC2CCN(Cc3ccc(F)c(F)c3)CC2)c(Cl)c1 | 14.1%
24 | O=C(NC1CCN(Cc2ccccc2)CC1)c1cc2nc(-c3ccc(Cl)s3)cc(C(F)(F)F)n2n1 | 15.3%
25 | COc1ccc(-c2cn3c(C(=O)Nc4ccccc4Cl)c(-c4ccccc4)c4c3n2CCCC4)cc1 | 2.56%
26 | CCN(CC)CCNc1ncnc2c1[nH]c1ccc(Cl)cc12 | 18.1%
27 | Cn1c(=O)c2cc(C(=O)NCCCN3CCCCCC3)sc2c2ccccc21 | 14.6%
28 | CCN1CCN(c2cc(C)c3cc(NC(=O)c4ccc(OC)c(OC)c4)ccc3n2)CC1 | 12.7%
29 | COc1cc(-c2nc(-c3ccccc3)c(-c3ccccc3)[nH]2)cc(OC)c1O | 18%
30 | CCCc1c(C)nc2ccccc2c1O | 9.94%
31 | COc1ccc(C2N(C)c3ccccc3N2C)cc1 | -0.36%
32 | CCOC(=O)C1=CN(C)C=C(C(=O)OCC)C1c1cc(Br)c(OCC)c(OC)c1 | 10.7%
33 | Cc1ccc(-c2cc3nc4c(c(O)n3n2)CCCC4)cc1 | 21.5%
34 | COc1ccc(C2c3ccc4ccccc4c3Oc3ncn(CCCn4ccnc4)c(=N)c32)cc1OC (stereo not given) | 11.1%
35 | Cc1ccccc1OCCSc1nc2ccc(NC(=O)c3cccs3)cc2s1 | 16.4%
36 | CCOC(=O)c1ccc2nc(-c3ccccc3)cc(O)c2c1 | 15.5%
37 | COc1cc2cc(C(=O)Nc3ccccc3)c(N)nc2cc1OC | 1.39%
38 | COc1cccc(C=Cc2nc(=O)c3ccccc3o2)c1OC | 11.5%
39 | COc1ccc(C2C(C(=O)Nc3cccc(OC)c3)c3ccccc3C(=O)N2C2CCCCC2)cc1 (stereo not given) | 29%
40 | Cc1ccnc(NC(c2cccc(OCc3ccccc3)c2)c2ccc3cccnc3c2O)c1 (stereo not given) | 22.3%

These molecules were tested on Mycobacterium tuberculosis (assay: MMV: Screen against Mtb, single point, replicating, at 25uM).
Assay type: functional

Row | Structure (SMILES) | inhibition at 25 µM
41 | O=C(Nc1ccc(-c2nc3cc4ccccc4cc3[nH]2)cc1)c1cccc(Br)c1 | 8.07%
42 | CCCCNc1nc(NC(C)(C)C)nc(NC(C)(C)C)n1 | 32.8%
43 | CCCCC(O)(c1ccc(Cl)cc1)C(CN1CCOCC1)c1ccc(Cl)cc1 (stereo not given) | 17.3%
44 | CN(C)CCCNc1c2ccccc2nc2ccccc12 | 18.4%
45 | O=C(NCc1ccco1)C1CCN(S(=O)(=O)c2ccc(Br)cc2)CC1 | 13%
46 | CCCCCCC(O)(c1ccc(F)cc1)C(CN1CCOCC1)c1ccccc1 (stereo not given) | 3.84%
47 | COc1ccc(CCN2CCC(CN(C)Cc3cnn(-c4ccccc4)c3)CC2)cc1 | 21.3%
48 | Cc1ccc2nc(C)cc(Nc3cccc(C(F)(F)F)c3)c2c1 | 39%
49 | CCOC(=O)C1(Cc2ccccc2)CCN(Cc2cccc(OC)c2O)CC1 | 9.17%
50 | Cc1cc(Nc2ccc(C)c(Cl)c2)n2nc(C(F)(F)F)nc2n1 | 19.5%
51 | O=[N+]([O-])c1ccc(C=NNc2nc3ccccc3[nH]2)cc1 | 16.3%
52 | COc1ccc(C(=O)Nc2ccc(Cl)cc2C(=O)Nc2ccncc2)cc1 | 4.46%
53 | CC(C)CNC(=O)c1c(N)n(CCc2ccccc2F)c2nc3ccccc3nc12 | 14.8%
54 | COc1ccc2c(c1)OC(O)(C(F)(F)C(F)(F)F)CC2=O (stereo not given) | 23.4%
55 | COc1ccc(CNC(=O)c2cc3c(=O)n4ccccc4nc3n(CCc3ccccc3)c2=N)cc1 | 20.3%
56 | Cc1cc(C)cc(Nc2cc(C)nc3nc(C(F)(F)F)nn23)c1 | 7.5%
57 | COc1cccc(Nc2nc(N)c3ccccc3n2)c1 | 6.04%
58 | CC1CCCCN1CCCNC(=O)c1ccc2c(c1)sc1nc(-c3ccc(F)cc3)cn12 (stereo not given) | 33.2%
59 | CCC(=O)Nc1nnc(Cc2ccc(OC)c(OC)c2)s1 | -1.3%
60 | CCOc1ccc(N2C(N)=NC(N)=NC2(C)C)cc1 | -0.705%

Row | Structure (SMILES) | inhibition at 25 µM
61 | COc1ccc(C(=O)NC(c2ccccc2Cl)c2cc(Cl)c3cccnc3c2O)cc1 (stereo not given) | 10.6%
62 | CCCc1cc(O)c2c3c(c(=O)oc2c1)CN(C)CC3 | 16%
63 | COCCNC(=O)c1ccc(OC2CCN(Cc3ccc(F)c(F)c3)CC2)c(Cl)c1 | 12.7%
64 | O=C(NC1CCN(Cc2ccccc2)CC1)c1cc2nc(-c3ccc(Cl)s3)cc(C(F)(F)F)n2n1 | 20.1%
65 | COc1ccc(-c2cn3c(C(=O)Nc4ccccc4Cl)c(-c4ccccc4)c4c3n2CCCC4)cc1 | 8.39%
66 | CCN(CC)CCNc1ncnc2c1[nH]c1ccc(Cl)cc12 | 15.4%
67 | Cn1c(=O)c2cc(C(=O)NCCCN3CCCCCC3)sc2c2ccccc21 | 19.5%
68 | CCN1CCN(c2cc(C)c3cc(NC(=O)c4ccc(OC)c(OC)c4)ccc3n2)CC1 | 14.8%
69 | COc1cc(-c2nc(-c3ccccc3)c(-c3ccccc3)[nH]2)cc(OC)c1O | 17%
70 | CCCc1c(C)nc2ccccc2c1O | 15.9%
71 | COc1ccc(C2N(C)c3ccccc3N2C)cc1 | -1.76%
72 | CCOC(=O)C1=CN(C)C=C(C(=O)OCC)C1c1cc(Br)c(OCC)c(OC)c1 | -1.96%
73 | Cc1ccc(-c2cc3nc4c(c(O)n3n2)CCCC4)cc1 | 14%
74 | COc1ccc(C2c3ccc4ccccc4c3Oc3ncn(CCCn4ccnc4)c(=N)c32)cc1OC (stereo not given) | 46.8%
75 | Cc1ccccc1OCCSc1nc2ccc(NC(=O)c3cccs3)cc2s1 | 51.3%
76 | CCOC(=O)c1ccc2nc(-c3ccccc3)cc(O)c2c1 | 14.6%
77 | COc1cc2cc(C(=O)Nc3ccccc3)c(N)nc2cc1OC | 17.1%
78 | COc1cccc(C=Cc2nc(=O)c3ccccc3o2)c1OC | 40.6%
79 | COc1ccc(C2C(C(=O)Nc3cccc(OC)c3)c3ccccc3C(=O)N2C2CCCCC2)cc1 (stereo not given) | 19.5%
80 | Cc1ccnc(NC(c2cccc(OCc3ccccc3)c2)c2ccc3cccnc3c2O)c1 (stereo not given) | 6.19%

— ChEMBL document CHEMBL2094260, “Malaria Box Tuberculosis Screening Data”
